These results are taken from US20240166652A1, “MODULATORS OF THE INTEGRATED STRESS PATHWAY” (Calico Life Sciences LLC, priority 2017, published 2024).

For the assay, the system named is ATF4 luciferase reporter in HEK293T cells. Kind of assay: ATF4-Luc assay (ATF4 luciferase reporter, tunicamycin-treated HEK293T cells). The settings on record: Homo sapiens, HEK-293T; HEK293T cells carrying the ATF4 luciferase reporter, 1 μg/mL tunicamycin, 7 hours. The class given is cell-based, human.
In general, EC50 refers to the midpoint of the concentration-response curve. Consider `O=C(COc1cc(F)c2cn[nH]c2c1)NC12CCC(NC(=O)COc3ccc(F)c(F)c3)(CC1)[C@@H](O)C2` [Compound 728, 2-(3,4-difluorophenoxy)-N-[(2S)-4-{2-[(4-fluoro-1H-indazol-6-yl)oxy]acetamido}-2-hydroxybicyclo[2.2.2]octan-1-yl]acetamide], for which the EC50 is less than 10 nM.

On to `O=C(CCOc1ccc(Cl)c(F)c1)NC12CCC(NC(=O)COc3ccc(Cl)cc3)(CC1)CC2` [Compound 729, 3-(4-chloro-3-fluorophenoxy)-N-{4-[2-(4-chlorophenoxy)acetamido]bicyclo[2.2.2]octan-1-yl}propanamide], for which the EC50 lay within 50 to 250 nM.

With `O=C(CCOc1ccc(Cl)c(F)c1)NC12CC(NC(=O)COc3ccc(Cl)c(F)c3)(C1)C2` [Compound 730, 3-(4-chloro-3-fluorophenoxy)-N-{3-[2-(4-chloro-3-fluorophenoxy)acetamido]bicyclo[1.1.1]pentan-1-yl}propanamide], the EC50 lay within 10 to 50 nM.

On to `Cc1ccc(OCC(=O)NC23CCC(NC(=O)COc4ccc(F)cc4)(CC2)[C@@H](O)C3)cc1F` [Compound 731, 2-(3-fluoro-4-methylphenoxy)-N-{(3S)-4-[2-(4-fluorophenoxy)acetamido]-3-hydroxybicyclo[2.2.2]octan-1-yl}acetamide], for which the EC50 was less than 10 nM.

With `Cc1ccc(OCC(=O)NC23CCC(NC(=O)COc4ccc(Cl)cc4)(CC2)[C@@H](O)C3)cc1F` [Compound 732, 2-(4-chlorophenoxy)-N-{(2S)-4-[2-(3-fluoro-4-methylphenoxy)acetamido]-2-hydroxybicyclo[2.2.2]octan-1-yl}acetamide], the EC50 was less than 10 nM.

On to `Cc1ccc(OCC(=O)NC23CCC(NC(=O)COc4ccc(OC(F)(F)F)c(F)c4)(CC2)[C@@H](O)C3)cc1F` [Compound 733, 2-(3-fluoro-4-methylphenoxy)-N-[(3S)-4-{2-[3-fluoro-4-(trifluoromethoxy)phenoxy]acetamido}-3-hydroxybicyclo[2.2.2]octan-1-yl]acetamide], for which the concentration giving a half-maximal response (EC50) was less than 10 nM.

For the compound `Cc1ccc(OCC(=O)NC23CCC(NC(=O)COc4ccc(F)c(F)c4)(CC2)[C@@H](O)C3)cc1F` [Compound 734, 2-(3,4-difluorophenoxy)-N-{(2S)-4-[2-(3-fluoro-4-methylphenoxy)acetamido]-2-hydroxybicyclo[2.2.2]octan-1-yl}acetamide], the EC50 is less than 10 nM.

For the compound `Cc1ccc(OCC(=O)NC23CCC(NC(=O)COc4cc(F)c5cn[nH]c5c4)(CC2)[C@@H](O)C3)cc1F` [Compound 735], the EC50 was less than 10 nM.

As for `Cc1ccc(OCC(=O)NC23CCC(NC(=O)COc4ccc(OC(F)(F)F)cc4)(CC2)[C@@H](O)C3)cc1F` [Compound 736, 2-(3-fluoro-4-methylphenoxy)-N-[(3S)-3-hydroxy-4-{2-[4-(trifluoromethoxy)phenoxy]acetamido}bicyclo[2.2.2]octan-1-yl]acetamide], the 50% effective concentration (EC50) is less than 10 nM.

For `Cc1ccc(OCC(=O)NC23CCC(NC(=O)COc4ccc(Cl)c(F)c4)(CC2)[C@@H](O)C3)cc1F` [Compound 737, 2-(4-chloro-3-fluorophenoxy)-N-{(2S)-4-[2-(3-fluoro-4-methylphenoxy)acetamido]-2-hydroxybicyclo[2.2.2]octan-1-yl}acetamide], the EC50 is less than 10 nM.

`O=C(COc1ccc(Cl)c(F)c1)NC12CCC(NC(=O)COc3cc(F)c4cn[nH]c4c3)(CC1)[C@@H](O)C2` [Compound 738, 2-(4-chloro-3-fluorophenoxy)-N-[(3S)-4-{2-[(4-fluoro-1H-indazol-6-yl)oxy]acetamido}-3-hydroxybicyclo[2.2.2]octan-1-yl]acetamide]: the EC50 is less than 10 nM.

Consider `O=C(COc1ccc(Cl)cc1)NC12CCC(NC(=O)COc3cc(F)c4cn[nH]c4c3)(CC1)CC2` [Compound 739, 2-(4-chlorophenoxy)-N-(4-{2-[(4-fluoro-1H-indazol-6-yl)oxy]acetamido}bicyclo[2.2.2]octan-1-yl)acetamide], for which the EC50 is less than 10 nM.

As to `O=C(COc1ccc(Cl)cc1)NC12CCC(NC(=O)COc3ccc(F)c(F)c3)(CC1)CC2` [Compound 740, 2-(4-chlorophenoxy)-N-{4-[2-(3,4-difluorophenoxy)acetamido]bicyclo[2.2.2]octan-1-yl}acetamide], the concentration giving a half-maximal response (EC50) fell in the range of 10 to 50 nM.

`O=C(COc1ccc(Cl)cc1)NC12CCC(NC(=O)COc3ccc(OC(F)(F)F)c(F)c3)(CC1)CC2` [Compound 741, 2-(4-chlorophenoxy)-N-(4-{2-[3-fluoro-4-(trifluoromethoxy)phenoxy]acetamido}bicyclo[2.2.2]octan-1-yl)acetamide]: the EC50 was in the range of 10 to 50 nM.

In the case of `O=C(COc1ccc(Cl)cc1)NC12CCC(NC(=O)COc3ccc4c(c3)OC(F)(F)O4)(CC1)CC2` [Compound 742, 2-(4-chlorophenoxy)-N-(4-{2-[(2,2-difluoro-2H-1,3-benzodioxol-5-yl)oxy]acetamido}bicyclo[2.2.2]octan-1-yl)acetamide], the half-maximal effective concentration (EC50) is less than 10 nM.

For `O=C(COc1ccc(Cl)cc1)NC12CCC(NC(=O)COc3ccc(F)c(Cl)c3)(CC1)CC2` [Compound 743, 2-(3-chloro-4-fluorophenoxy)-N-{4-[2-(4-chlorophenoxy)acetamido]bicyclo[2.2.2]octan-1-yl}acetamide], the EC50 is less than 10 nM.

For `O=C(COc1ccc(Cl)cc1)NC12CCC(NC(=O)COc3ccc(Cl)cc3)(CC1)CC2` [Compound 744, N,N′-(bicyclo[2.2.2]octane-1,4-diyl)bis[2-(4-chlorophenoxy)acetamide]], the EC50 was less than 10 nM.

As to `Cc1ccc(OCC(=O)NC23CCC(NC(=O)COc4ccc5c(C)n[nH]c5c4)(CC2)[C@@H](O)C3)cc1` [Compound 746, N-{(2S)-2-hydroxy-4-[2-(4-methylphenoxy)acetamido]bicyclo[2.2.2]octan-1-yl}-2-[(3-methyl-1H-indazol-6-yl)oxy]acetamide], the EC50 is 10 to 50 nM.

As for `Cc1n[nH]c2cc(OCC(=O)NC34CCC(NC(=O)COc5ccc(OC(F)(F)F)c(F)c5)(CC3)C[C@@H]4O)ccc12` [Compound 747, 2-[3-fluoro-4-(trifluoromethoxy)phenoxy]-N-[(3S)-3-hydroxy-4-{2-[(3-methyl-1H-indazol-6-yl)oxy]acetamido}bicyclo[2.2.2]octan-1-yl]acetamide], the EC50 was in the range of 10 to 50 nM.

Take `O=C(COc1ccc(Cl)c(F)c1)NC12CCC(NC(=O)CNc3ccc(Cl)c(F)c3)(CC1)[C@@H](O)C2` [Compound 748, 2-(4-chloro-3-fluoroanilino)-N-{(2S)-4-[2-(4-chloro-3-fluorophenoxy)acetamido]-2-hydroxybicyclo[2.2.2]octan-1-yl}acetamide]: the EC50 is 10 to 50 nM.

Consider `Cc1n[nH]c2cc(OCC(=O)NC34CCC(NC(=O)COc5ccc(Cl)c(F)c5)(CC3)C[C@@H]4O)ccc12` [Compound 749, 2-(4-chloro-3-fluorophenoxy)-N-[(3S)-3-hydroxy-4-{2-[(3-methyl-1H-indazol-6-yl)oxy]acetamido}bicyclo[2.2.2]octan-1-yl]acetamide], for which the EC50 is less than 10 nM.

As for `O=C(COc1ccc(Cl)c(F)c1)NC12CCC(NC(=O)COc3ccc(OC(F)(F)F)c(F)c3)(CC1)[C@@H](O)C2` [Compound 750, 2-(4-chloro-3-fluorophenoxy)-N-[(3S)-4-{2-[3-fluoro-4-(trifluoromethoxy)phenoxy]acetamido}-3-hydroxybicyclo[2.2.2]octan-1-yl]acetamide], the EC50 was less than 10 nM.

Consider `CS(=O)(=O)c1cc(F)ccc1OCC(=O)NC12CCC(NC(=O)COc3ccc(Cl)c(F)c3)(CC1)[C@@H](O)C2` [Compound 751, 2-(4-chloro-3-fluorophenoxy)-N-[(2S)-4-{2-[4-fluoro-2-(methanesulfonyl)phenoxy]acetamido}-2-hydroxybicyclo[2.2.2]octan-1-yl]acetamide], for which the EC50 was more than 2000 nM.

Regarding `CN1C(=O)COc2c(OCC(=O)NC34CCC(NC(=O)COc5ccc(Cl)c(F)c5)(CC3)[C@@H](O)C4)cc(Cl)cc21` [Compound 752, 2-(4-chloro-3-fluorophenoxy)-N-[(2S)-4-{2-[(6-chloro-4-methyl-3-oxo-3,4-dihydro-2H-1,4-benzoxazin-8-yl)oxy]acetamido}-2-hydroxybicyclo[2.2.2]octan-1-yl]acetamide], the EC50 fell in the range of 500 to 2000 nM.

For the compound `Cc1ccnc(OCC(=O)NC23CCC(NC(=O)COc4ccc(Cl)c(F)c4)(CC2)C[C@@H]3O)n1` [Compound 753, 2-(4-chloro-3-fluorophenoxy)-N-[(3S)-3-hydroxy-4-{2-[(4-methylpyrimidin-2-yl)oxy]acetamido}bicyclo[2.2.2]octan-1-yl]acetamide], the EC50 lay within 250 to 500 nM.

On to `O=C1COc2c(cc(Cl)cc2OCC(=O)NC23CCC(NC(=O)COc4ccc(Cl)c(F)c4)(CC2)[C@@H](O)C3)N1` [Compound 754, 2-(4-chloro-3-fluorophenoxy)-N-[(2S)-4-{2-[(6-chloro-3-oxo-3,4-dihydro-2H-1,4-benzoxazin-8-yl)oxy]acetamido}-2-hydroxybicyclo[2.2.2]octan-1-yl]acetamide], for which the EC50 is more than 2000 nM.

Turning to `Cc1cc(F)ccc1OCC(=O)NC12CCC(NC(=O)COc3ccc(Cl)c(F)c3)(CC1)[C@@H](O)C2` [Compound 755, 2-(4-chloro-3-fluorophenoxy)-N-{(2S)-4-[2-(4-fluoro-2-methylphenoxy)acetamido]-2-hydroxybicyclo[2.2.2]octan-1-yl}acetamide], the EC50 is less than 10 nM.

As for `COc1cc(OCC(=O)NC23CCC(NC(=O)COc4ccc(F)c(F)c4)(CC2)[C@@H](O)C3)ccc1F` [Compound 756, 2-(3,4-difluorophenoxy)-N-{(2S)-4-[2-(4-fluoro-3-methoxyphenoxy)acetamido]-2-hydroxybicyclo[2.2.2]octan-1-yl}acetamide], the concentration for a half-maximal effect (EC50) is less than 10 nM.

As for `COCc1cc(OCC(=O)NC23CCC(NC(=O)COc4ccc(Cl)c(F)c4)(CC2)[C@@H](O)C3)ccc1Cl` [Compound 757, 2-(4-chloro-3-fluorophenoxy)-N-[(2S)-4-{2-[4-chloro-3-(methoxymethyl)phenoxy]acetamido}-2-hydroxybicyclo[2.2.2]octan-1-yl]acetamide], the EC50 is 10 to 50 nM.

Take `O=C(COc1ccc2c(c1)OCCO2)NC12CCC(NC(=O)COc3ccc(Cl)c(F)c3)(CC1)[C@@H](O)C2` [Compound 758, 2-(4-chloro-3-fluorophenoxy)-N-[(2S)-4-{2-[(2,3-dihydro-1,4-benzodioxin-6-yl)oxy]acetamido}-2-hydroxybicyclo[2.2.2]octan-1-yl]acetamide]: the EC50 is less than 10 nM.
